The values that follow come from patent publication US12129248B2, “Chromobox protein inhibitors and uses thereof” (Dana-Farber Cancer Institute, Inc., priority 2016, dated 2024).

Series [1] deals with HCT292 human lung cancer cells. Briefly: HCT292 cell viability (crystal violet / ATPlite). To be noted: for viability at 50 µM / IC50 / viability at 10 µM / viability at 20 µM: Homo sapiens; for viability at 50 µM / viability at 10 µM / viability at 20 µM: 96 h; for viability at 50 µM / % Viability / viability at 10 µM / viability at 20 µM: HCT292 cells, relative to DMSO; for IC50: Table 4, assay not given, cited among cellular activity Tables 3-9 (HCT292); for % Viability: 96 hours. Format: cell-based. The method, then: Lastly, the biological activity of lead compounds was assessed in cancer cells lines determined to be sensitive to CBX inhibition. First, a cell line screening for CBX2 and CBX3 dependence/sensitivity was conducted using shRNAs. […] These cell lines were utilized to evaluate the potential cellular activity of a panel of CBX inhibitors (Tables 3-9).
Briefly, HCT292 cells were treated 24 hours after passage; the compounds in DMSO were added directly to their media. Initially, which cells caused cell death was checked by fixing and staining the cells with crystal violet 96-hours post treatment and then reading the absorbance using the Envision and comparing the signal to a DMSO control. This was done as a preliminary viability screen prior to the ATPlite assay to determine which compounds HCT292 cells were and H661 cells were not sensitive to. […] Thus, a cellular system to evaluate the activity of small molecule CBX inhibitors was established.

A further series deals with Human His6-CBX7 (Homo sapiens (Human), UniProt O95931). The series is described as follows: CBX7 AlphaScreen assay (binding of CBX7 chromodomain to H3K27me3 peptide). As to conditions: for IC50: average, His6-CBX7 / biotinylated-H3K27me3, read-out: AVG CBX7 Alpha IC50. The text has this:
A biochemical assay was developed based on nanoparticle AlphaScreen assay to monitor the binding of recombinant CBX chromodomain (CBX7) to a methylated peptide (H3K27me3).
The primary assay uses recombinant CBX chromodomain and synthetic, trimethylated H3 histone tail peptide. When CBX/histone tail-binding occurs, AlphaScreen beads are brought in close proximity, resulting in singlet molecular oxygen transfer and production of a luminescent signal. Assay positives inhibiting the binding interaction are therefore expected to prevent complex formation, diminishing signal intensity. The AlphaScreen technology features an anti-Stokes shift in detection: due to energy transfer between beads by singlet oxygen and internal chemical reactions within the acceptor bead, the emission wavelength is blue-shifted relative to the excitation wavelength, which is impossible in traditional fluorescent assays. The relatively long path length of 200 nm that singlet molecular oxygen can travel enables reporting on full protein complexes and not just single target binding. […] Neither the small molecules being tested nor the target protein, CBX7, need to be chemically, conformationally, or behaviorally altered by tethering them to a surface or reporter that may decrease physiological relevance and beget screening artifacts. The primary assay monitors binding of the chromodomain of CBX7 to a histone tail containing a trimethylated lysine at K27, the biologically relevant interaction through which PRC binds to chromatin to repress transcription. This is a robust proximity-based assay that utilizes AlphaScreen technology (PerkinElmer). The assay consists of His6-CBX7 bound to a Ni^++ acceptor bead and the biotinylated histone tail bound to a streptavadin donor bead. Upon CBX7/H3K27me3 binding, the steptavidin bead comes into proximity with the Ni^++ bead to luminesce upon light excitation ([…]; see below).
The protocol for the CBX7 AlphaScreen was as follows: a standard alpha buffer (50 mM HEPES, 150 mM NaCl, 0.1% w/v BSA, 0.01% w/v Tween20) at pH 8.0 and make up two stock solutions at 2× final concentration in the alpha buffer. Solution A contains Human His6-CBX7 is used with biotinylated-H3K27me3 (residues 20-34), at 100 nM and 50 nM respectively. Solution B contains 20 nM streptavidin donor beads and 20 nM nickel acceptor beads. For 384 well assay formats, 10 uL of solution A is added to each well of the assay plate and the plate is spun at 1000 rpm for 30 seconds. 100 nL of experimental compounds from stock plates are delivered by robotic pin transfer using a Janus Workstation (PerkinElmer), allowing the compounds to interact with CBX7 binding prior to assay measurement, followed by another spin and an incubation room temperature. Finally, 10 uL of solution B is added to each well, the plate is spun again and then incubated at room temperature. AlphaScreen measurements are performed on an Envision 2104 (PerkinElmer) utilizing the manufacturer's protocol that has the correct excitation and emission wavelengths, cutoff filters, delay time, etc. A crosstalk calculation is also done through the Envision software to correct for luminescence for adjacent wells while reading the plate. The signal is then normalized to DMSO control wells on the compound plate prior to creation of the IC50 curves.
A general note: Alpha assays give light when donor and acceptor beads are brought close together.

For the next series, the target named is CBX7 (Homo sapiens (Human), UniProt O95931). Briefly: Isothermal titration calorimetry. Format: binding. As to conditions: in words (FIG. 20). From the text: A new series of compounds were designed and synthesized based on computational modeling of inhibitor compounds with the literature reported crystal structure of CBX.
(In general: In ITC the heat of successive injections is recorded.)

Human His6-CBX7, sequence (O95931 11-69): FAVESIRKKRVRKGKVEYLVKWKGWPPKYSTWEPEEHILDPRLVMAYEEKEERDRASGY
CBX7, sequence (O95931 whole entry): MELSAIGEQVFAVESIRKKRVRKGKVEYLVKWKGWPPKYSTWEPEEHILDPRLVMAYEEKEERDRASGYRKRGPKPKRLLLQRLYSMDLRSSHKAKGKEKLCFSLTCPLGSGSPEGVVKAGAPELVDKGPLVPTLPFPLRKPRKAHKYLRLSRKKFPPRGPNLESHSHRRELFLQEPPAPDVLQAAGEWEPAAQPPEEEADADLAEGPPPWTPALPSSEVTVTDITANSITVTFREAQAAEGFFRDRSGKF

The viability is a read-out of living cells in per cent, often relative to untreated cells. Low readings indicate a greater loss of cells, high ones better survival. The IC50 is the concentration needed to halve the response being measured. In series [1] (50 uM), `CN(C)c1ccc(CCNC(=O)CC2S/C(=N/N=C/c3cccnc3)NC2=O)cc1` (stereo not drawn) [ACV-42] registered a viability at 50 µM of 95.8%. Moreover, the IC50 in series [1] is 1000 µM; on Human His6-CBX7, 155 µM.

For the molecule `CN1CCN(CCNC(=O)CC2S/C(=N/N=C/c3ccc(O)c(O)c3O)NC2=O)CC1` (stereo not drawn) [ACV-63, N-(2-(4-methylpiperazin-1-yl)ethyl)-2-(4-oxo-2-((2,3,4-trihydroxybenzylidene)hydrazono)thiazolidin-5-yl)acetamide], the “% Viability” value stood at 94.2% in series [1] (10 uM, listed as 2-195) and 43.5% in series [1] (50 uM, listed as 2-195). In addition, at Human His6-CBX7, the IC50 worked out at 0.183 µM.

Turning to `O=C(Cc1cnc(NC(=O)Nc2cccnc2)s1)Nc1ccc(N2CCCC2)cc1` [ACV-40, 2-(2-(3-(pyridin-3-yl)ureido)thiazol-5-yl)-N-(4-(pyrrolidin-1-yl)phenyl)acetamide], in series [1] (10 uM), the viability at 10 µM came out at 99%. The viability at 50 µM in series [1] (50 uM) amounted to 82.9%. Further, the values for the IC50 (in series [1]; on Human His6-CBX7) were 83.9 µM and 12.8 µM, respectively.

On to `O=C(CC1S/C(=N/N=C/c2cccnc2)NC1=O)Nc1ccc(N2CCCC2)cc1` (stereo not drawn) [ACV-14 (2)], for which the values for the IC50 (in series [1]; at Human His6-CBX7) were 115 µM and 10.2 µM, respectively.

For the molecule `O=C(CC1S/C(=N/N=C/c2ccc(O)c(O)c2O)NC1=O)Nc1ccc(N2CCCC2)cc1` (stereo not drawn) [ACV-17 (1), 2-(4-oxo-2-((2,3,4-trihydroxybenzylidene)hydrazono)thiazolidin-5-yl)-N-(4-(pyrrolidin-1-yl)phenyl) acetamide], the “% Viability” value in series [1] (50 uM, listed as 1-258C) is 33.0%. In addition, in series [1] (10 uM), the viability at 10 µM was found to be 72.2%. Moreover, at Human His6-CBX7, the IC50 came to 69.7 µM.

For the molecule `CN1CCN(CCNC(=O)CC2S/C(=N/N=C/c3ccc(O)c(O)c3O)NC2=O)CC1` (stereo not drawn) [ACV-63 (CP)], in series [1] (10 uM, listed as 2-195 (CP)), the “% Viability” value worked out at 34.9%. This molecule also showed a viability at 20 µM in series [1] of 41%. Besides, the viability at 50 µM in series [1] (50 uM) turned out to be 60.6%. In addition, the IC50 on Human His6-CBX7 turned out to be 5.31 µM.

For the molecule `O=C(Nc1ccc(N2CCCC2)cc1)c1ccc(-c2csc(CCN3CCOCC3)n2)cc1` [ACV-89], the viability at 10 µM in series [1] (10 uM) was found to be 31.3%. The molecule further showed a viability at 20 µM in series [1] of 29%. The viability at 50 µM in series [1] (50 uM) was determined as 28%. The IC50 on Human His6-CBX7 came to 12.9 µM.

In the case of `COC(=O)c1ccc2nc(-c3ccc(O)c(O)c3O)c(NCc3ccccc3)n2c1` [ACV-91], the viability at 10 µM in series [1] (10 uM) was found to be 33.5%. For the same molecule, in series [1], the viability at 20 µM came to 30.5%. Moreover, in series [1] (50 uM), the viability at 50 µM was determined as 18%. At Human His6-CBX7, the IC50 turned out to be 12 µM.

`O=C(CC1S/C(=N/N=C/c2ccc(O)c(O)c2O)NC1=O)Nc1ccc(N2CCCC2)cc1` (stereo not drawn) [ACV-17(CP)]: the “% Viability” value in series [1] (50 uM, listed as 258C (CP)) worked out at 20.3%. Also, at Human His6-CBX7, the IC50 came out at 1.74 µM.

On to `O=C(CC1S/C(=N/N=C/c2ccc(O)c(O)c2O)NC1=O)Nc1ccc(N2CCCC2)cc1` (stereo not drawn) [ACV-17 (2)], for which, in series [1] (50 uM, listed as 2-165), the “% Viability” value stood at 58.8%. The results for the IC50 (in series [1]; at Human His6-CBX7) were 0.334 µM and 0.93 µM, respectively.

Take `COC(=O)C1CSC(CC(=O)Nc2ccc(N3CCCC3)cc2)C(=O)N1` (stereo not drawn) [ACV-22]: on Human His6-CBX7 (in words (FIG. 9)), the “binding affinity with CBX” value was “low micromolar”. Also, the “binding affinity by isothermal titration calorimetry” value on CBX7 is “further confirmed”.

As for `CN1CCN(CCNC(=O)CC2SC(N3CCC(c4ccc(O)c(O)c4O)=N3)=NC2=O)CC1` (stereo not drawn) [CBX-09, N-(2-(4-methylpiperazin-1-yl)ethyl)-2-(4-oxo-2-(3-(2,3,4-trihydroxyphenyl)-4,5-dihydro-1H-pyrazol-1-yl)-4,5-dihydrothiazol-5-yl)acetamide], the IC50 on Human His6-CBX7 came to 53.4 µM.

For `COc1ccc(-c2ccc3nc(-c4ccco4)cc(C(=O)Nc4ccc(N5CCN(C)CC5)cc4)c3c2)cc1OC` [ACV-44], the half-maximal inhibitory concentration (IC50) on Human His6-CBX7 was determined as 101 µM.
